Data: ChEMBL document CHEMBL1201862, “PubChem BioAssay data set” (2004)
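Method: 48-hour compound exposure of cells in 96-well plates, five concentrations, linear interpolation of endpoints. The concentration for 50% growth inhibition is given as GI50.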 The source made the active and inactive calls. No stated cut-off is given here; in the data, active = GI50 up to about 1.1 µM and inactive = higher.

Tests used:
Assay in all cases: DTP human tumour cell line panel, 48 h
[1] = test system: MOLT-4
[2] = test system: U-251
[3] = test system: PC-3
[4] = test system: CAKI-1
[5] = test system: K562
[6] = test system: DU-145
[7] = test system: IGROV-1
[8] = test system: OVCAR-3
[9] = test system: SF-295
[10] = test system: NCI-H226
[11] = test system: CCRF-CEM
[12] = test system: MDA-MB-231
[13] = test system: OVCAR-4
[14] = test system: HOP-92
[15] = test system: HCT-15
[16] = test system: TK-10
[17] = test system: RXF 393
[18] = test system: NCI-H23
[19] = test system: NCI/ADR-RES
[20] = test system: HCC 2998
[21] = test system: NCI-H522
[22] = test system: ACHN
[23] = test system: MCF7
[24] = test system: UO-31
[25] = test system: Hs-578T
[26] = test system: SF-539
[27] = test system: HCT-116
[28] = test system: SK-MEL-28
[29] = test system: OVCAR-5
[30] = test system: 786-0
[31] = test system: A498
[32] = test system: M14
[33] = test system: T47D
[34] = test system: RPMI-8226
[35] = test system: SW-620
[36] = test system: LOX IMVI
[37] = test system: KM12
[38] = test system: SK-OV-3
[39] = test system: OVCAR-8
[40] = test system: SK-MEL-2
[41] = test system: EKVX
[42] = test system: SR
[43] = test system: MDA-N
[44] = test system: UACC-257
[45] = test system: SK-MEL-5
[46] = test system: HL-60
[47] = test system: MDA-MB-435
[48] = test system: HT-29
[49] = test system: HOP-62
[50] = test system: NCI-H460
[51] = test system: SF-268
[52] = test system: Malme-3M
[53] = test system: SNB-19
[54] = test system: A549
[55] = test system: UACC-62
[56] = test system: SNB-75
[57] = test system: SN12C
[58] = test system: COLO 205

Measured: GI50

CC1=NN(c2cccc(Cl)c2)C2(C1=Cc1ccc(N(C)C)cc1)C(Cl)C(=O)N2c1nc2ccccc2s1 (configuration not stated)
inactive: [1] 74 µM | [2] 53.7 µM | [3] > 100 µM | [4] 72.9 µM | [5] 56.9 µM | [6] 97.5 µM | [7] 40.7 µM | [8] 39.5 µM | [9] 67.1 µM | [10] > 100 µM | [11] 50.5 µM | [12] 46.8 µM | [13] 24.2 µM | [14] 18.6 µM | [16] 76.4 µM | [17] 20.3 µM | [18] 45.5 µM | [19] 63.5 µM | [20] 17.8 µM | [21] 19.1 µM | [22] 53.2 µM | [23] 70.5 µM | [24] > 100 µM | [25] 23.5 µM | [26] 49.1 µM | [27] 60 µM | [28] > 100 µM | [29] > 100 µM | [30] 43.1 µM | [31] 36.3 µM | [32] 18.7 µM | [33] 50.8 µM | [34] 41 µM | [35] 19.6 µM | [36] > 100 µM | [37] 3.95 µM | [38] 34.4 µM | [39] 73.3 µM | [40] 60.3 µM | [41] > 100 µM | [42] > 100 µM | [43] 63.7 µM | [44] > 100 µM | [45] 49.1 µM | [46] > 100 µM | [47] 6.18 µM | [48] 25.5 µM | [49] 17.8 µM | [50] > 100 µM | [51] 20.3 µM
77.4 µM: [15]

CCOC(=O)c1c(SC(=O)/C=C/c2ccccc2)n(-c2ccccc2)c(=S)n(-c2ccccc2)c1=O
> 100 µM: [15]
inactive: [1] > 100 µM | [2] > 100 µM | [3] > 100 µM | [4] > 100 µM | [5] > 100 µM | [6] > 100 µM | [7] > 100 µM | [8] > 100 µM | [9] > 100 µM | [10] > 100 µM | [11] > 100 µM | [12] > 100 µM | [13] > 100 µM | [14] > 100 µM | [16] > 100 µM | [17] > 100 µM | [18] > 100 µM | [19] > 100 µM | [52] > 100 µM | [53] > 100 µM | [20] > 100 µM | [21] > 100 µM | [22] > 100 µM | [23] > 100 µM | [25] > 100 µM | [26] > 100 µM | [27] > 100 µM | [28] > 100 µM | [54] > 100 µM | [29] > 100 µM | [30] > 100 µM | [31] > 100 µM | [32] > 100 µM | [33] > 100 µM | [35] > 100 µM | [36] > 100 µM | [37] > 100 µM | [38] > 100 µM | [39] > 100 µM | [41] > 100 µM | [42] > 100 µM | [55] > 100 µM | [44] > 100 µM | [47] > 100 µM | [48] > 100 µM | [56] > 100 µM | [49] > 100 µM | [50] > 100 µM | [57] > 100 µM | [51] > 100 µM | [58] > 100 µM

CC1C(c2ccc(F)cc2)c2cc3c(cc2OC1N1CCCC1)OCO3 (configuration not stated)
34.4 µM: [15]
inactive: [3] 44.2 µM | [4] 16.7 µM | [5] 42 µM | [6] 61.9 µM | [7] 42.2 µM | [8] 43.7 µM | [9] 27.6 µM | [11] 30.8 µM | [14] 15.5 µM | [16] 37.2 µM | [18] 64.9 µM | [19] 43.6 µM | [53] 29.1 µM | [20] 38.6 µM | [21] 29 µM | [22] 27.7 µM | [23] 45.4 µM | [24] 23.2 µM | [25] 18 µM | [26] 30.4 µM | [27] 30.6 µM | [28] 90.4 µM | [54] 34.3 µM | [29] 47.5 µM | [30] 45.1 µM | [32] 54.2 µM | [33] 35.7 µM | [34] > 10 µM | [35] 47 µM | [36] 83.8 µM | [37] 42.5 µM | [39] 55.1 µM | [40] 89.3 µM | [41] 34.1 µM | [42] 35.2 µM | [55] 55 µM | [43] 66.4 µM | [44] 55.1 µM | [45] 37.7 µM | [47] 44.6 µM | [48] 47.8 µM | [56] 22.3 µM | [49] 46.3 µM | [57] 80.4 µM | [51] 36.8 µM | [58] 49.5 µM

CC1CN=C(N(C(=O)Nc2ccc(Cl)cc2)c2cccc(Cl)c2)S1 (configuration not stated)
11.3 µM: [15]
inactive: [1] > 10 µM | [2] 70.3 µM | [3] 25.2 µM | [4] 12.9 µM | [5] 7.06 µM | [6] 46.8 µM | [7] 24.4 µM | [8] 40.6 µM | [9] 20.1 µM | [11] 17.8 µM | [12] 39.3 µM | [13] 46.3 µM | [14] 26.3 µM | [16] 15 µM | [18] 35.1 µM | [19] 19.2 µM | [52] 59 µM | [53] > 100 µM | [20] 20.9 µM | [22] 10.8 µM | [23] 34.7 µM | [24] 37.4 µM | [25] 50.1 µM | [26] 33.7 µM | [27] 20.4 µM | [28] 28.6 µM | [54] 25.6 µM | [29] > 100 µM | [30] 23.9 µM | [31] 16.9 µM | [32] 7.24 µM | [33] 13 µM | [34] > 10 µM | [35] 41.9 µM | [36] 21.6 µM | [37] 24.9 µM | [38] > 100 µM | [39] 36.9 µM | [40] 16.6 µM | [41] 31.2 µM | [42] 29.3 µM | [43] 24.9 µM | [44] 28.2 µM | [45] 17.5 µM | [46] 48.2 µM | [48] 23 µM | [56] 65 µM | [49] > 100 µM | [50] 27.1 µM | [57] 15.7 µM | [51] 54.2 µM | [58] 18.5 µM

CSc1cc(Cl)c(C)cc1S(=O)(=O)NC(=O)NNc1ccc(Cl)cc1
> 100 µM: [15]
inactive: [1] 46.6 µM | [2] > 100 µM | [3] 80.5 µM | [4] 94.6 µM | [5] > 100 µM | [6] > 100 µM | [7] > 100 µM | [8] > 100 µM | [9] > 100 µM | [10] 56 µM | [12] > 100 µM | [13] > 100 µM | [17] 99.1 µM | [19] > 100 µM | [52] > 100 µM | [53] > 100 µM | [20] 36.2 µM | [21] 70.3 µM | [22] 47.3 µM | [23] > 100 µM | [25] 34.1 µM | [26] 40.1 µM | [27] > 100 µM | [28] > 100 µM | [54] > 100 µM | [29] > 100 µM | [30] > 100 µM | [31] > 100 µM | [32] > 100 µM | [33] > 100 µM | [35] > 100 µM | [36] > 100 µM | [37] > 100 µM | [38] > 100 µM | [39] > 100 µM | [40] > 100 µM | [41] > 100 µM | [42] 70 µM | [43] > 100 µM | [45] 69.5 µM | [47] > 100 µM | [48] > 100 µM | [56] > 100 µM | [49] > 100 µM | [50] > 100 µM | [57] > 100 µM | [51] > 100 µM | [58] > 100 µM
